# In patent publication US8445674B2, “Heterocyclyl compounds” (Hoffmann-La Roche Inc, priority 2009, dated 2013):
# Biological target: T1, human chemokine receptor 2 isoform B (Homo sapiens, UniProt P41597)
# T1 construct: host or cells: CHOK1-CCR2B-A5 cells (CHO-K1)
# T1 sequence (P41597 1-360 isoform P41597-2): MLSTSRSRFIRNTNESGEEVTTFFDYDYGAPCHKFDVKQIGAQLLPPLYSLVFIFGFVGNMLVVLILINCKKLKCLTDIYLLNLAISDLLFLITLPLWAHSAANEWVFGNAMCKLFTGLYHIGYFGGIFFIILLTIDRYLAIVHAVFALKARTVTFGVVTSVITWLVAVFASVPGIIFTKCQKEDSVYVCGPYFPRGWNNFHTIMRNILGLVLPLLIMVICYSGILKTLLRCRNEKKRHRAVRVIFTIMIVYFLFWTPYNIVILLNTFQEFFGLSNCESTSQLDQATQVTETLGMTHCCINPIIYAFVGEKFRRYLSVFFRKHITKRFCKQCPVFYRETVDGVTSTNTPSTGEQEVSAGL
# Assay: Calcium mobilization assay (FLIPR, antagonist activity against MCP-1)
# Type: cell-based
# Settings: Ca mobilisation assay, CHOK1-CCR2B-A5 cells, inhibition of calcium increase induced by 20 nM MCP-1
# Method in brief: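 CHOK1 cells stably overexpressing human CCR2B, loaded with 4 μM Fluo-4 for 2 h at 30° C, compounds added and agonist signal read by FLIPR for 80 s. After 20-30 min at 30° C, 20 nM MCP-1 was added and fluorescence read again. IC50 is 50% inhibition of specific calcium increase (max minus basal).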
row,SMILES,IC50
1,"C[C@H]1C(=O)N(CCCC(=O)N2CCC3(CC2)COC3)CCN1C(=O)Nc1cccc(Cl)c1 [Example 36, (S)-2-Methyl-4-[4-(2-oxa-7-aza-spiro[3.5]non-7-yl)-4-oxo-butyl]-3-oxo-piperazine-1-carboxylic acid (3-chloro-phenyl)-amide]",2340 nM
2,"C[C@H]1C(=O)N(CCCC(=O)N2CCC3(CC3)[C@H](O)C2)CCN1C(=O)Nc1ccc(C(F)(F)F)cc1 [Example 29, (S)-4-[4-((S)-4-Hydroxy-6-aza-spiro[2.5]oct-6-yl)-4-oxo-butyl]-2-methyl-3-oxo-piperazine-1-carboxylic acid (4-trifluoromethyl-phenyl)-amide]",20.6 nM
3,"C[C@H]1C(=O)N(CCC(C)(C)C(=O)N2CCC3(CC3)[C@H](O)C2)CCN1C(=O)Nc1ccc(OC(F)(F)F)c(Cl)c1 [Example 51, (S)-4-[4-((S)-4-Hydroxy-6-aza-spiro[2.5]oct-6-yl)-3,3-dimethyl-4-oxo-butyl]-2-methyl-3-oxo-piperazine-1-carboxylic acid (3-chloro-4-trifluoromethoxy-phenyl)-amide]",750 nM
4,"O=C(/C=C/c1ccc(Cl)c(Cl)c1)N1CCC(=O)N(CCC(=O)N2CCC3(CCCC3)CC2)CC1 [Example 83, 4-[3-(8-Aza-spiro[4.5]dec-8-yl)-3-oxo-propyl]-1-[(E)-3-(3,4-dichloro-phenyl)-acryloyl]-[1,4]diazepan-5-one]",307 nM
5,"C[C@H]1C(=O)N(CCCC(=O)N2CC[C@](C)(CO)[C@H](O)C2)CCN1C(=O)Nc1cccc(Cl)c1 (racemic) [Example 114, (S)-4-[4-((3SR,4RS)-3-Hydroxy-4-hydroxymethyl-4-methyl-piperidin-1-yl)-4-oxo-bulyl]-2-methyl-3-oxo-piperazine-1-carboxylic acid (3-chloro-phenyl)-amide]",31.5 nM
6,"O=C(/C=C/c1ccc(Cl)c(Cl)c1)N1CCC(=O)N(C(CCO)C(=O)N2CCCC2)CC1 (racemic) [Example 5, rac-(1-[(E)-3-(3,4-Dichloro-phenyl)-acryloyl]-4-[3-hydroxy-1-(pyrrolidine-1-carbonyl)-propyl]-[1,4]diazepan-5-one)]",583 nM
7,COC(=O)C(CC(=O)N1CCC2(CC2)[C@H](O)C1)N1CCN(C(=O)/C=C/c2cccc(Cl)c2)CCC1=O (some centres unmarked) [Example 10],708 nM
8,"COC(=O)C(CC(=O)N(C)C)N1CCN(C(=O)/C=C/c2cccc(Cl)c2)CCC1=O (racemic) [Example 12, rac-(2-{4-[(E)-3-(3-Chloro-phenyl)-acryloyl]-7-oxo-[1,4]diazepan-1-yl}-N,N-dimethyl-succinamic acid methyl ester)]",1940 nM
9,"CC1(CO)CCN(C(=O)CN2CCN(C(=O)/C=C/c3ccc(Cl)c(Cl)c3)CCC2=O)CC1 [Example 99, 1-[(E)-3-(3,4-Dichloro-phenyl)-acryloyl]-4-[2-(4-hydroxymethyl-4-methyl-piperidin-1-yl)-2-oxo-ethyl]-[1,4]diazepan-5-one]",4960 nM
10,"C[C@H]1C[C@H](O)CN(C(=O)CCN2CCN(C(=O)Nc3ccc(Cl)c(Cl)c3)[C@@H](C)C2=O)C1 [Example 19, (S)-4-[3-((3S,5S)-3-Hydroxy-5-methyl-piperidin-1-yl)-3-oxo-propyl]-2-methyl-3-oxo-piperazine-1-carboxylic acid (3,4-dichloro-phenyl)-amide]",3830 nM
11,"C[C@H]1C(=O)N(CCCC(=O)N2CCC3(CC3)[C@H](O)C2)CCN1C(=O)Nc1cccc(C(F)(F)F)c1 [Example 28, (S)-4-[4-((S)-4-Hydroxy-6-aza-spiro[2.5]oct-6-yl)-4-oxo-butyl]-2-methyl-3-oxo-piperazine-1-carboxylic acid (3-trifluoromethyl-phenyl)-amide]",54.9 nM
12,"O=C1NC(=O)C2(CCN(C(=O)CCN3CCN(C(=O)/C=C/c4ccc(Cl)c(Cl)c4)CCC3=O)CC2)N1 [Example 89, 8-(3-{4-[(E)-3-(3,4-Dichloro-phenyl)-acryloyl]-7-oxo-[1,4]diazepan-1-yl}-propionyl)-1,3,8-triaza-spiro[4.5]decane-2,4-dione]",4000 nM
13,"C[C@H]1C[C@H](O)CN(C(=O)CCCN2CCN(C(=O)Nc3cccc(Cl)c3)[C@@H](C)C2=O)C1 [Example 113, (S)-4-[4-((3S,5S)-3-Hydroxy-5-methyl-piperidin-1-yl)-4-oxo-butyl]-2-methyl-3-oxo-piperazine-1-carboxylic acid (3-chloro-phenyl)-amide]",1420 nM

# Second part, the molecule after the results:
row,IC50,SMILES
1,4.5 nM,"C[C@H]1C(=O)N([C@H](CO)CCC(=O)N2CCC3(CC3)[C@H](O)C2)CCN1C(=O)Nc1ccc(C(F)(F)F)c(C(F)(F)F)c1 [Example 144, (S)-4-[(S)-4-((S)-4-Hydroxy-6-aza-spiro[2.5]oct-6-yl)-1-hydroxymethyl-4-oxo-butyl]-2-methyl-3-oxo-piperazine-1-carboxylic acid (3,4-bis-trifluoromethyl-phenyl)-amide]"
2,17.6 nM,"O=C1CCN(C(=O)Nc2ccc(C(F)(F)F)c(Cl)c2)CCN1CCCC(=O)N1CCC2(CC2)[C@H](O)C1 [Example 119, 4-[4-((S)-4-Hydroxy-6-aza-spiro[2.5]oct-6-yl)-4-oxo-butyl]-5-oxo-[1,4] diazepane-1-carboxylic acid (3-chloro-4-trifluoromethyl-phenyl)-amide]"
3,337 nM,"COC(=O)[C@H](CCC(=O)N1CCC2(CC2)[C@H](O)C1)N1CCN(C(=O)Nc2ccc(C(F)(F)F)c(C(F)(F)F)c2)[C@@H](C)C1=O [Example 143, (S)-2-[(S)-4-(3,4-Bis-trifluoromethyl-phenylcarbamoyl)-3-methyl-2-oxo-piperazin-1-yl]-5-((S)-4-hydroxy-6-aza-spiro[2.5]oct-6-yl)-5-oxo-pentanoic acid methyl ester]"
4,188 nM,"C[C@H]1C(=O)N(CC[C@H](O)C(=O)N2CCC3(CC3)[C@H](O)C2)CCN1C(=O)Nc1ccc(C(F)(F)F)c(Cl)c1 [Example 134, (S)-4-[(S)-3-Hydroxy-4-((S)-4-hydroxy-6-aza-spiro[2.5]oct-6-yl)-4-oxo-butyl]-2-methyl-3-oxo-piperazine-1-carboxylic acid (3-chloro-4-trifluoromethyl-phenyl)-amide]"
5,134 nM,"C[C@H]1C(=O)N(CCC(O)C(=O)N2CCC3(CC3)[C@H](O)C2)CCN1C(=O)Nc1ccc(C(F)(F)F)c(Cl)c1 (stereo partly drawn) [Example 133, (S)-4-[(R,S)-3-Hydroxy-4-((S)-4-hydroxy-6-aza-spiro[2.5]oct-6-yl)-4-oxo-butyl]-2-methyl-3-oxo-piperazine-1-carboxylic acid (3-chloro-4-trifluoromethyl-phenyl)-amide]"
6,152 nM,"COC[C@H](CCC(=O)N1CCC2(CC2)[C@H](O)C1)N1CCN(C(=O)Nc2ccc(C(F)(F)F)c(Cl)c2)[C@@H](C)C1=O [Example 139, (S)-4-[(S)-4-((S)-4-Hydroxy-6-aza-spiro[2.5]oct-6-yl)-1-methoxymethyl-4-oxo-butyl]-2-methyl-3-oxo-piperazine-1-carboxylic acid (3-chloro-4-trifluoromethyl-phenyl)-amide]"
7,310 nM,"COC[C@H](CCC(=O)N1CCC2(CC2)[C@H](O)C1)N1CCN(c2ccc(C(F)(F)F)c(Cl)c2)[C@@H](C)C1=O [Example 132, (S)-4-(3-Chloro-4-trifluoromethyl-phenyl)-1-[(S)-4-((S)-4-hydroxy-6-aza-spiro[2.5]oct-6-yl)-1-methoxymethyl-4-oxo-butyl]-3-methyl-piperazin-2-one]"
